Tests used:
[1] = tested on: control sera (pooled serum of ten healthy LUMC hospital workers; commercial negative donor pooled serum from the Dutch bloodbank); assay type: binding, human; set-up: Binding of Control serum LUMC to linear peptides / Binding of Control serum Blood-bank to linear peptides / Binding of Control serum LUMC to looped peptides / Binding of Control Serum Blood-Bank to Looped peptides / Binding of Control serum LUMC to linear peptides of the protein M of SARS-CoV Urbani / Binding of Control serum Blood-bank to linear peptides of the protein M of SARS-CoV Urbani / Binding of Control serum LUMC to looped peptides of the protein M of SARS-CoV Urbani / Binding of Control Serum Blood-Bank to Looped peptides of the protein M of SARS-CoV Urbani: unit not given here
[2] = tested on: antibodies in sera from SARS patients (sera 1a, 1b, 2, 6, 37, 62, London, SARS-yellow, SARS-green); assay type: binding, human; set-up: Binding of serum 6 to linear peptides of protein X1 of SARS-CoV Urbani / Binding of serum 37 to linear peptides of protein X1 of SARS-CoV Urbani / Binding of serum 6 to looped/cyclic peptide (PEPSCAN-ELISA) / Binding of serum 37 to looped/cyclic peptide (PEPSCAN-ELISA) / Binding of serum 37 to looped/cyclic peptides of protein X1 of SARS-CoV Urbani / Binding of serum 6 to linear peptides of protein X2 / Binding of serum 37 to linear peptides of protein X2 / Binding of serum 37 to looped/cyclic peptides of protein X2 of SARS-CoV Urbani / Binding of serum 6 to linear peptides of protein M of SARS-CoV Urbani / Binding of serum 37 to linear peptides of protein M of SARS-CoV Urbani / Binding of serum 6 to looped/cyclic peptides of protein M of SARS-CoV Urbani / Binding of serum 37 to looped/cyclic peptides of protein M of SARS-CoV Urbani / Binding of serum 6 to linear peptides of protein X3 of SARS-CoV Urbani / Binding of serum 37 to linear peptides of protein X3 of SARS-CoV Urbani / Binding of serum 37 to looped/cyclic peptides of protein X3 of SARS-CoV Urbani / Binding of serum 6 to linear peptides of protein X4 of SARS-CoV Urbani / Binding of serum 37 to linear peptides of protein X4 of SARS-CoV Urbani / Binding of serum 37 to looped/cyclic peptides of protein X4 of SARS-CoV Urbani / Binding of serum 6 to linear peptides of protein X5 of SARS-CoV Urbani / Binding of serum 37 to linear peptides of protein X5 of SARS-CoV Urbani / Binding of serum 37 to looped/cyclic peptides of protein X5 of SARS-CoV Urbani / Binding of serum 6 to linear peptides of protein N of SARS-CoV Urbani / Binding of serum 37 to linear peptides of protein N of SARS-CoV Urbani / Binding of serum 6 to linear peptide (PEPSCAN-ELISA) / Binding of serum 1a to looped/cyclic peptides of protein N of SARS-CoV Urbani / Binding of serum 1b to looped/cyclic peptides of protein N of SARS-CoV Urbani / Binding of serum 2 to looped/cyclic peptides of protein N of SARS-CoV Urbani / Binding of serum 6 to looped/cyclic peptides of protein N of SARS-CoV Urbani / Binding of serum 37 to looped/cyclic peptides of protein N of SARS-CoV Urbani / Binding of serum 62 to looped/cyclic peptides of protein N of SARS-CoV Urbani / Binding of serum London to looped/cyclic peptides of protein N of SARS-CoV Urbani / Binding of serum SARS-green to looped/cyclic peptides of protein N of SARS-CoV Urbani: unit not given here
[3] = tested on: rabbit serum obtained by immunizing a rabbit with the SARS-CoV strain Frankfurt 1; assay type: binding; set-up: Binding of a rabbit serum to linear peptides / Binding of a rabbit serum to looped peptides / Rabbit serum linear peptides / Rabbit serum looped peptides / Binding of a rabbit serum to linear peptides of protein N of SARS-CoV Urbani (Rabbit serum linear peptides) / Binding of a rabbit serum to looped/cyclic peptides of protein N of SARS-CoV Urbani (Rabbit serum looped peptides): unit not given here

Sequence: LWLLWPVTLACFVLA
- Binding of Control Serum Blood-Bank to Looped peptides of the protein M of SARS-CoV Urbani [1]: 0.5
- Binding of Control serum Blood-bank to linear peptides of the protein M of SARS-CoV Urbani [1]: 0.5
- Binding of Control serum LUMC to linear peptides of the protein M of SARS-CoV Urbani [1]: 0.5
- Binding of Control serum LUMC to looped peptides of the protein M of SARS-CoV Urbani [1]: 0.6
- Binding of serum 1a to linear peptides of protein M of SARS-CoV Urbani [2]: 0.7
- Binding of serum 1a to looped/cyclic peptides of protein M of SARS-CoV Urbani [2]: 0.7
- Binding of serum 1b to linear peptides of protein M of SARS-CoV Urbani [2]: 0.6
- Binding of serum 1b to looped/cyclic peptides of protein M of SARS-CoV Urbani [2]: 0.4
- Binding of serum 2 to linear peptides of protein M of SARS-CoV Urbani [2]: 0.4
- Binding of serum 2 to looped/cyclic peptides of protein M of SARS-CoV Urbani [2]: 0.6
- Binding of serum 6 to linear peptides of protein M of SARS-CoV Urbani [2]: 0.5
- Binding of serum 6 to looped/cyclic peptides of protein M of SARS-CoV Urbani [2]: 0.5
- Binding of serum 37 to linear peptides of protein M of SARS-CoV Urbani [2]: 0.4
- Binding of serum 37 to looped/cyclic peptides of protein M of SARS-CoV Urbani [2]: 0.7
- Binding of serum 62 to linear peptides of protein M of SARS-CoV Urbani [2]: 0.4
- Binding of serum 62 to looped/cyclic peptides of protein M of SARS-CoV Urbani [2]: 0.6
- Binding of serum London to linear peptides of protein M of SARS-CoV Urbani [2]: 0.4
- Binding of serum London to looped/cyclic peptides of protein M of SARS-CoV Urbani [2]: 0.2
- Binding of serum SARS-green to linear peptides of protein M of SARS-CoV Urbani [2]: 0.4
- Binding of serum SARS-green to looped/cyclic peptides of protein M of SARS-CoV Urbani [2]: 0.2
- Binding of serum SARS-yellow to linear peptides of protein M of SARS-CoV Urbani [2]: 0.2
- Binding of serum SARS-yellow to looped/cyclic peptides of protein M of SARS-CoV Urbani [2]: 0.6
- Rabbit serum linear peptides [3]: 0.1
- Rabbit serum looped peptides [3]: 0.4

Sequence: LWPVTLACFVLAAVY
- Binding of Control Serum Blood-Bank to Looped peptides of the protein M of SARS-CoV Urbani [1]: 0.6
- Binding of Control serum Blood-bank to linear peptides of the protein M of SARS-CoV Urbani [1]: 0.6
- Binding of Control serum LUMC to linear peptides of the protein M of SARS-CoV Urbani [1]: 0.4
- Binding of Control serum LUMC to looped peptides of the protein M of SARS-CoV Urbani [1]: 0.7
- Binding of serum 1a to linear peptides of protein M of SARS-CoV Urbani [2]: 0.7
- Binding of serum 1a to looped/cyclic peptides of protein M of SARS-CoV Urbani [2]: 0.7
- Binding of serum 1b to linear peptides of protein M of SARS-CoV Urbani [2]: 0.6
- Binding of serum 1b to looped/cyclic peptides of protein M of SARS-CoV Urbani [2]: 0.5
- Binding of serum 2 to linear peptides of protein M of SARS-CoV Urbani [2]: 0.6
- Binding of serum 2 to looped/cyclic peptides of protein M of SARS-CoV Urbani [2]: 0.7
- Binding of serum 6 to linear peptides of protein M of SARS-CoV Urbani [2]: 0.3
- Binding of serum 6 to looped/cyclic peptides of protein M of SARS-CoV Urbani [2]: 0.6
- Binding of serum 37 to linear peptides of protein M of SARS-CoV Urbani [2]: 0.7
- Binding of serum 37 to looped/cyclic peptides of protein M of SARS-CoV Urbani [2]: 0.7
- Binding of serum 62 to linear peptides of protein M of SARS-CoV Urbani [2]: 0.8
- Binding of serum 62 to looped/cyclic peptides of protein M of SARS-CoV Urbani [2]: 0.6
- Binding of serum London to linear peptides of protein M of SARS-CoV Urbani [2]: 0.3
- Binding of serum London to looped/cyclic peptides of protein M of SARS-CoV Urbani [2]: 0.2
- Binding of serum SARS-green to linear peptides of protein M of SARS-CoV Urbani [2]: 0.2
- Binding of serum SARS-green to looped/cyclic peptides of protein M of SARS-CoV Urbani [2]: 0.2
- Binding of serum SARS-yellow to linear peptides of protein M of SARS-CoV Urbani [2]: 0.0
- Binding of serum SARS-yellow to looped/cyclic peptides of protein M of SARS-CoV Urbani [2]: 0.5
- Rabbit serum linear peptides [3]: 0.4
- Rabbit serum looped peptides [3]: 0.4
